From patent publication US11312682B2, “Selective inhibitors of carbonic anhydrase” (VILNIUS UNIVERSITY, priority 2015, dated 2022) come the findings set out here.

The target in assay [1] is human recombinant CA IX (Homo sapiens, UniProt Q16790). Kind of assay: Fluorescent thermal shift assay (FTSA), binding to CA IX. Particulars: read-out: Dissociation constants, CA IX.
Assay [2] concerns the target human recombinant CA IV (Homo sapiens, UniProt P22748). Kind of assay: Fluorescent thermal shift assay (FTSA), binding to CA IV. The settings on record: Table 1; FTSA at 37° C. and pH 7.0; read-out: Dissociation constants, CA IV.
Assay [3] addresses human recombinant CA XIII (Homo sapiens, UniProt Q8N1Q1). Kind of assay: Fluorescent thermal shift assay (FTSA), binding to CA XIII. The settings on record: Table 1; FTSA at 37° C. and pH 7.0; read-out: Dissociation constants, CA XIII.
The target of assay [4] is human recombinant CA VA (Homo sapiens, UniProt P35218). Kind of assay: Fluorescent thermal shift assay (FTSA), binding to CA VA. The settings on record: Table 1; FTSA at 37° C. and pH 7.0; read-out: Dissociation constants, CA VA.
human recombinant CA VA, sequence (P35218 39-305): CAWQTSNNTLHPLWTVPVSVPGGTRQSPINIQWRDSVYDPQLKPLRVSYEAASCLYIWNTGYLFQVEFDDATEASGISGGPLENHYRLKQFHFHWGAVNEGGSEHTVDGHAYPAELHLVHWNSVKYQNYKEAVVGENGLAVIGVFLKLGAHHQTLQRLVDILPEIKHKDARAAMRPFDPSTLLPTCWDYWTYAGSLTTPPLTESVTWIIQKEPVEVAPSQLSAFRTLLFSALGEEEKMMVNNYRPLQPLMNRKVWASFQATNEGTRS
Assay [5] has as its target human recombinant CA VI (Homo sapiens, UniProt P23280). Kind of assay: Fluorescent thermal shift assay (FTSA), binding to CA VI. Particulars: Table 1; FTSA at 37° C. and pH 7.0; read-out: Dissociation constants, CA VI.
Assay [6] addresses human recombinant CA VB (Homo sapiens, UniProt Q9Y2D0). Kind of assay: Fluorescent thermal shift assay (FTSA), binding to CA VB. Particulars: Table 1; FTSA at 37° C. and pH 7.0; read-out: Dissociation constants, CA VB.
The target of assay [7] is human recombinant CA III (Homo sapiens, UniProt P07451). Kind of assay: Fluorescent thermal shift assay (FTSA), binding to CA III. Particulars: Table 1; FTSA at 37° C. and pH 7.0; read-out: Dissociation constants, CA III.
human recombinant CA III, sequence (P07451 whole entry): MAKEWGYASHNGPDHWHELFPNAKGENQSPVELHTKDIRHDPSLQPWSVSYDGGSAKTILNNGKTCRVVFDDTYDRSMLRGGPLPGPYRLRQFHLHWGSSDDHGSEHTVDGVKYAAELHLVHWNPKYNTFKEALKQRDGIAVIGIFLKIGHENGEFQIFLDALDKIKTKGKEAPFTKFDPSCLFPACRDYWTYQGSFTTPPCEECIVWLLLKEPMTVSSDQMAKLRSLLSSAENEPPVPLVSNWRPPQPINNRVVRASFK
Assay [8] has as its target human recombinant CA XII (Homo sapiens, UniProt O43570). Kind of assay: Fluorescent thermal shift assay (FTSA), binding to CA XII. Particulars: read-out: Dissociation constants, CA XII.
The target of assay [9] is human recombinant CA XIV (Homo sapiens, UniProt Q9ULX7). Kind of assay: Fluorescent thermal shift assay (FTSA), binding to CA XIV. The settings on record: read-out: Dissociation constants, CA XIV.
human recombinant CA XIV, sequence (Q9ULX7 16-337): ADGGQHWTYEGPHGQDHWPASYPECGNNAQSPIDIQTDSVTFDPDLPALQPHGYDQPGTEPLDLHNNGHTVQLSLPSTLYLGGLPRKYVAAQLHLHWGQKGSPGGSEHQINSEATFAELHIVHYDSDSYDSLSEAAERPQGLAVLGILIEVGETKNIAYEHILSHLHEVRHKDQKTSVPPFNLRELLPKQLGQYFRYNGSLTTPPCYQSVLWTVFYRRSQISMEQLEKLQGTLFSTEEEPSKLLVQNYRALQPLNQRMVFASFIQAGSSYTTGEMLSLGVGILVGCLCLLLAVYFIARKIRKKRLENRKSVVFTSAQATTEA
For assay [10], the target named is human recombinant CA VII (Homo sapiens, UniProt P43166). Kind of assay: Fluorescent thermal shift assay (FTSA), binding to CA VII. Particulars: Table 1; FTSA at 37° C. and pH 7.0; read-out: Dissociation constants, CA VII.
human recombinant CA VII, sequence (P43166 whole entry): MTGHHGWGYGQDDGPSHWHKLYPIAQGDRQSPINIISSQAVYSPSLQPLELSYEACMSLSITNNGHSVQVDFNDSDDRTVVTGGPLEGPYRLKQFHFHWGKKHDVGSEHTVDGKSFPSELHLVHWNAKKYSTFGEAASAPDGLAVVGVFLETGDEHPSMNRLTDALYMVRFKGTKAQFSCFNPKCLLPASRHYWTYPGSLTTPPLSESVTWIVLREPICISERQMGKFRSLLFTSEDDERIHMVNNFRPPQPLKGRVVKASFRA
Assay [11] addresses human recombinant CA I (Homo sapiens, UniProt P00915). Kind of assay: Fluorescent thermal shift assay (FTSA), binding to CA I. The settings on record: Table 3; FTSA at 37° C., pH 7.0; read-out: Dissociation constants, CA I.
Assay [12] addresses human recombinant CA II (Homo sapiens, UniProt P00918). Kind of assay: Fluorescent thermal shift assay (FTSA), binding to CA II. The settings on record: read-out: Dissociation constants, CA II.
[13] abbreviates: Table 1, FTSA at 37° C. and pH 7.0.
Setting [14] is: Table 3, FTSA at 37° C., pH 7.0.

Where two headings read alike, the source gives them in different places.

human recombinant CA I, sequence (P00915 whole entry): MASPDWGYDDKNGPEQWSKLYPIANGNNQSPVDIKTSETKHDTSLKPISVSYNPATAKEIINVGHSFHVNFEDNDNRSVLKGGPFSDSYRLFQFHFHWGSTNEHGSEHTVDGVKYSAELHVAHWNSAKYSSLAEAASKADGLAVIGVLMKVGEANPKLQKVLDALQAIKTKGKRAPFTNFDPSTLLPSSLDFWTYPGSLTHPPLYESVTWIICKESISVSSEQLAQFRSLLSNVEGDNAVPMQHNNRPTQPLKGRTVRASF
human recombinant CA XIII, sequence (Q8N1Q1 whole entry): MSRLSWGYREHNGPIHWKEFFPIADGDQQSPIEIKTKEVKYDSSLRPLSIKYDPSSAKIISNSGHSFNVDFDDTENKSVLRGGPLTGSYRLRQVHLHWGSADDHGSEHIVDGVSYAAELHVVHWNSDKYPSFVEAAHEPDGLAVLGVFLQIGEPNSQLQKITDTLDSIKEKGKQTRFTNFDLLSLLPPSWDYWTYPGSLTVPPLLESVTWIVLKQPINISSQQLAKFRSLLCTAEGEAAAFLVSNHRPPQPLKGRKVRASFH
human recombinant CA XII, sequence (O43570 25-354): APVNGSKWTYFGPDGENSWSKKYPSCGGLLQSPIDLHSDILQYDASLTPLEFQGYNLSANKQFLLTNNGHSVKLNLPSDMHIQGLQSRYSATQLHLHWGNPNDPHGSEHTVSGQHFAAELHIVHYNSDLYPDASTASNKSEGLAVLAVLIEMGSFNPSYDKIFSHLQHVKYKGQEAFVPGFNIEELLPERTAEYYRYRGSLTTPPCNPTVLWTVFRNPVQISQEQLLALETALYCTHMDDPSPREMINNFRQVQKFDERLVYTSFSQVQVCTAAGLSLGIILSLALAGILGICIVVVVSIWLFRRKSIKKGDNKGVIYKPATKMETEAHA
human recombinant CA VI, sequence (P23280 18-308): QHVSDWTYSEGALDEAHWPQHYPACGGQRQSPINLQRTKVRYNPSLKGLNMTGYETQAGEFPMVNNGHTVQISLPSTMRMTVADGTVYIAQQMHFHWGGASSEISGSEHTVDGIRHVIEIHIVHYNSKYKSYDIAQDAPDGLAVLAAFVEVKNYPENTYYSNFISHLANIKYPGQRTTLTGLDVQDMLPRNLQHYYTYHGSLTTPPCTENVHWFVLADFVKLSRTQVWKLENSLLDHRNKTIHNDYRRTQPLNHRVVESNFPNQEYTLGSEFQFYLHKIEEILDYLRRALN
human recombinant CA IV, sequence (P22748 19-284): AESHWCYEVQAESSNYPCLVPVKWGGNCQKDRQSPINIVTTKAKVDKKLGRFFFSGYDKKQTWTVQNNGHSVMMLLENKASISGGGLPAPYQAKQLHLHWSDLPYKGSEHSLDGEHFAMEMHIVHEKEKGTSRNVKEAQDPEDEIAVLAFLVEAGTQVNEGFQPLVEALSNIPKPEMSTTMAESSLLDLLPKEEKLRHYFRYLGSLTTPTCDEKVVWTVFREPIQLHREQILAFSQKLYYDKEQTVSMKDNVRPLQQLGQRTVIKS
human recombinant CA VB, sequence (Q9Y2D0 34-317): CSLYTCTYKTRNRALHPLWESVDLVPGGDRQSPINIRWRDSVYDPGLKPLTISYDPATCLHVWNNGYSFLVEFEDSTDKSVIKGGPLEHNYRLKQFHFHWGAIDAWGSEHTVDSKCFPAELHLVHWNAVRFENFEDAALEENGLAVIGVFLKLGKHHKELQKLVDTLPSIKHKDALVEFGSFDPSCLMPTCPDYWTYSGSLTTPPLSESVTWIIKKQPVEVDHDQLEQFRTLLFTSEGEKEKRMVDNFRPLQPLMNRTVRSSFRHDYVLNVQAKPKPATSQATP

“2,4-dichloro-5-[2-(5-methoxybenzimidazol-1-yl)acetyl]benzenesulfonamide and 2,4-dichloro-5-[2-(6-methoxybenzimidazol-1-yl)acetyl]benzenesulfonamide [Compound 31]”: the Kd in assay [1] (setting [13]) amounted to 400 nM; in assay [2] it was 1400 nM; in [3], 600 nM; in assay [4], 6 nM; in assay [5] it was 1800 nM; in assay [6], 700 nM. Further, the Kd in [7] was determined as 40000 nM; in [8] (setting [13]), 2800 nM; in assay [9] (setting [13]) it was 40 nM; in assay [10] it was 300 nM.

In the case of `COC(=O)c1cc(S(N)(=O)=O)c(Cl)cc1Sc1ccccc1` [Compound 14a, methyl 4-chloro-2-phenylsulfanyl-5-sulfamoyl-benzoate], the Kd in assay [11] is 10000 nM; in [8] (setting [14]), 6.7 nM.

Regarding `COC(=O)c1cc(S(N)(=O)=O)c(Cl)cc1SC1CCCCC1` [Compound 14b, methyl 4-chloro-2-cyclohexylsulfanyl-5-sulfamoyl-benzoate], the Kd in assay [12] (setting [14]) was found to be 250 nM; in [1] (setting [14]), 0.3 nM; in [11], 17000 nM; in assay [8] (setting [14]) it was 33 nM.

Regarding `COC(=O)c1cc(S(N)(=O)=O)c(Cl)cc1SCc1ccccc1` [Compound 14c, methyl 2-benzylsulfanyl-4-chloro-5-sulfamoyl-benzoate], the Kd was determined as 110 nM in [12] (setting [14]), 2.9 nM in assay [1] (setting [14]), 6900 nM in assay [11] and 22 nM in [8] (setting [14]).

In the case of `COC(=O)c1cc(S(N)(=O)=O)c(Cl)cc1SCCc1ccccc1` [Compound 14d, methyl 4-chloro-2-phenethylsulfanyl-5-sulfamoyl-benzoate], the Kd was found to be 170 nM in assay [12] (setting [14]), 13 nM in [1] (setting [14]), 13000 nM in assay [11] and 53 nM in [8] (setting [14]).

Turning to `NS(=O)(=O)c1cc(C(=O)Cn2cnc3ccccc32)ccc1Cl` [Compound 19, 5-[2-(benzimidazol-1-yl)acetyl]-2-chloro-benzenesulfonamide], the Kd in assay [2] is 600 nM; in assay [3], 800 nM; in [4] it was 0.3 nM; in [5], 700 nM; in assay [7], > 200000 nM; in [9] (setting [13]), 50 nM.

On to `Cc1cc2ncn(CC(=O)c3ccc(Cl)c(S(N)(=O)=O)c3)c2cc1C` [Compound 20, 2-chloro-5-[2-(5,6-dimethylbenzimidazol-1-yl)acetyl]benzenesulfonamide], for which the Kd amounted to 600 nM in assay [12] (setting [13]); 600 nM in assay [1] (setting [13]); 800 nM in assay [3]; 0.8 nM in [4]; 3100 nM in [8] (setting [13]); 50 nM in [9] (setting [13]).

As to `NS(=O)(=O)c1cc(C(=O)Cn2cnc3ccccc32)c(Cl)cc1Cl` [Compound 29, 5-[2-(benzimidazol-1-yl)acetyl]-2,4-dichloro-benzenesulfonamide], the Kd was 400 nM in [1] (setting [13]); 700 nM in [3]; 2 nM in [4]; 20 nM in assay [9] (setting [13]); 100 nM in [10].

As to `Cc1cc2ncn(CC(=O)c3cc(S(N)(=O)=O)c(Cl)cc3Cl)c2cc1C` [Compound 30, 2,4-dichloro-5-[2-(5,6-dimethylbenzimidazol-1-yl)acetyl]benzenesulfonamide], the Kd in [12] (setting [13]) came out at 500 nM; in assay [4], 5 nM; in assay [9] (setting [13]), 300 nM; in [10], 700 nM.

Consider `COC(=O)c1cc(S(N)(=O)=O)c(Cl)cc1S(=O)(=O)c1ccccc1` [Compound 42a, methyl 2-(benzenesulfonyl)-4-chloro-5-sulfamoyl-benzoate], for which, in [9] (Table 2, FTSA at 37° C., pH 7.0), the Kd was 0.03 nM.
